As a reminder, the IC50 is the concentration that inhibits the measured activity by half. Lower therefore signals inhibition by little substance.

Common to all, as to assay type: cell-based
Data set [1] has as its system MDRAB (multidrug-resistant Acinetobacter baumannii). Particulars: MDRAB (multidrug-resistant, 2 h). As to the method:
(§1) The antimicrobial activities of dK1, dK2, dK3, dK4 and dK5 were determined by bactericidal assays on laboratory strains of MRSA (methicillin-resistant Staphylococcus aureus) and MDRAB (multidrug-resistant Acinetobacter baumannii).
(§2) The bacteria were inoculated in Luria broth (LB) solid medium (BioShop Canada Inc., Ontario, Canada) (Focus Bioscience, Murrarrie, Australia). Single colonies were collected and inoculated in 8 mL of liquid medium, and the cultures were incubated overnight at 37° C., 200 rpm. On the next day, the bacterial cultures were centrifuged with a centrifuger (KUBOTA2800, KUBOTA, Osakashi, Japan) at 2500 rpm for 5 minutes at room temperature, and the supernatants were discarded. The pellets were mixed and suspended with 1×PBS (phosphate-buffered saline, PBS, pH 7.4) (PROTECH, Taipei, Taiwan). The step was repeated twice to wash the bacterial cells. After the washing step, the bacterial cells were then re-suspended in 1×PBS, and the concentrations of bacterial cells were adjusted to 1×10^7 CFU/mL.
(§3) In the bactericidal assay, 2700 μL of 1× PBS were mixed with 300 μL 1×10^7 CFU/mL bacteria suspension mentioned as negative control, and each of the solutions of dK1 to dK5 at different concentrations was mixed with 300 μL 1×10^7 CFU/mL bacteria suspension and 2700 μL of 1× PBS. The mixtures were incubated at 37° C., 200 rpm for 2 hours. After incubation, 100 μL of each of the control group samples and the experimental group samples were collected and put in Eppendorf centrifuge tubes, and followed by 10-fold serial dilution with 900 μL of 1× PBS. After the serial dilution, 100 μL of the sample from each group was inoculated on the LB solid medium. The experiments were carried out in triplicate for each group, and the LB solid media with samples were cultured at 37° C. for at least 18 hours. After overnight incubation at 37° C., bacterial colonies were counted. Bacterial survival rates of each group were determined as follows. % survival rate=[(Colonies formed from peptide-treated sample)/(Colonies formed from negative control)]×100%

For data set [2], the system named is MRSA (methicillin-resistant Staphylococcus aureus). Particulars: 2 h. As to the method:
as §1, §2, §3

Another data set in a line: in vitro. Conditions: human. How it is done: For measuring the cytotoxicity of the antimicrobial peptides dK1, dK2 and dK3, a colorimetric 3-bis-(2-methoxy-4-nitro-5-sulfophenyl)-2H-tetrazolium-5-carboxanilide (XTT) dye reduction assay was employed. The cytotoxicity of the antimicrobial peptides of the invention were tested on Huh-7 and HeLa cells. The culture medium for Huh-7 is Dulbecco's modified eagle medium, DMEM (Gibco™, NY, USA) containing 10% fetal bovine serum (FBS) (Gibco™, NY, USA) 1% non-essential amino acid solution (NEAA) (Biological Industries, Beit HaEmek, Israel) and 1% streptomycin-penicillin solution (Gibco™, NY, USA). The culture medium for HeLa cells is Minimum Essential Medium (MEM) (Gibco™, NY, USA) containing 10% FBS (Gibco™, NY, USA), 1% sodium pyruvate (Gibco™, NY, USA), 1% NEAA (Biological Industries, Beit HaEmek, Israel) and 1% streptomycin-penicillin (Gibco™, NY, USA). […] The absorbance of the samples was measured at the 4th hour, and cell viability calculated to evaluate the cytotoxicity of the antimicrobial peptides. The absorbance of the samples was measured with an ELISA reader (EPOCH™, BioTek instruments, Inc., Winooski, USA) at a wavelength of 475 nm. The absorbance value of the positive control group was regarded as 0% cell viability, and the absorbance value of the negative control group was regarded as 100% cell viability. […]

Residues, ends and D or L forms follow the SMILES beside them. No end group written: not given here.

In turn, `CC(C)C[C@H](NC(=O)[C@H](CCCCN)NC(=O)[C@@H]1CCCN1C(=O)CNC(=O)[C@H](Cc1ccccc1)NC(=O)[C@H](CCCCN)NC(=O)[C@H](C)NC(=O)[C@@H]1CCCN1C(=O)[C@H](Cc1ccccc1)NC(=O)[C@H](CO)NC(=O)[C@H](C)NC(=O)[C@@H]1CCCN1C(=O)[C@H](CC(C)C)NC(=O)[C@@H](N)Cc1ccccc1)C(=O)N[C@@H](Cc1ccccc1)C(=O)N[C@@H](CS)C(=O)N[C@@H](CC(C)C)C(=O)N[C@H](C(=O)N[C@H](C(=O)N[C@@H](CCCCN)C(=O)N[C@@H](CCCCN)C(=O)N[C@@H](CS)C(=O)O)[C@@H](C)O)C(C)C` [dK4] (H-FLPASFPAKFGPKLFCLVTKKC-OH; N-terminus and C-terminus assumed) returned an IC50 in data set [1] of 8000 to 10000 nM.
For FLAIPSKPLKVAKPLGFALIIL [dK5], in data set [2], the IC50 lay within 10000 to 15000 nM and the “MBC (minimum bactericidal concentration) against MRSA” value (shortened to “MBC … against MRSA”) fell in the range of 30 to 40 µM. Also, in data set [1], the IC50 fell in the range of 20000 to 25000 nM.
For the compound IVRRIWRAWARRVRLVARIPAV [dK1], in data set [2], the IC50 was ~195 nM and the “MBC … against MRSA” value lay in the range of 0.39 to 0.78 µM. In data set [1], the IC50 was ~167 nM and the “MBC (minimum bactericidal concentration) against MDRAB” value (from here on “MBC … against MDRAB”) fell in the range of 0.667 to 1.33 µM.
For the compound RLIAAWRAVIRARVRARRAPIF [dK2], in data set [2], the IC50 is ~390 nM and the “MBC … against MRSA” value was 1.56 to 3.12 µM. Also, in data set [1], the IC50 fell in the range of 200 to 250 nM and the “MBC … against MDRAB” value was 0.5 to 0.6 µM.
As for RPFIVRAWRRAVARRARAILPI [dK3], in data set [2], the half-maximal inhibitory concentration (IC50) was 1560 to 3120 nM and the “MBC … against MRSA” value lay within 3.12 to 4.5 µM. In data set [1], the IC50 is 195 to 390 nM and the “MBC … against MDRAB” value lay within 0.78 to 1.56 µM. For the same compound, the cytotoxicity at 4 h, 2 μM in “in vitro” was 50%.

Values taken from US12129279B2, “Antimicrobial peptides and use of the same for treating microbial infections” (TZU CHI UNIVERSITY, priority 2022, dated 2024).
